Assay results reported in US5965743A, “N-substituted imidazol derivative” (Nippon Soda Co., Ltd., priority 1994, dated 1999).
Read-outs that look alike come from different tables or passages of the source.

How the values were obtained:
[1] = tested on: Triton WR-1339-Induced Hyperlipemia Mice; test: Effect on serum lipid in Triton WR-1339-induced hyperlipemia mice; assay type: in vivo, mouse (Crj:ICR-strain); conditions: Mus musculus, po (3 x 33.3 mg/kg), average of 10 animals, 24 hours
Procedure: For this test, Crj:ICR-strain male mice aged 7-9 weeks were provided. […] After 24 hours, blood sampling was performed for each mouse from the abdominal aorta under anesthesia with ether, and the collected blood were placed into plastic test tubes being placed with a blood separating agent beforehand, then after 30 min. or 1 hour, the blood sampled was centrifuged at 10,000 rpm to obtain the serum. Total cholesterol value, HDL cholesterol value and total triglyceride value in the serum were respectively measured by using the measuring kits and automatic biochemical analyser.

[2] = tested on: biosynthesis of cholesterol; test: Inhibitory effect on biosynthesis of cholesterol in cell-free biosystem; assay type: biochemical, rat (SD-strain); conditions: cell-free rat liver enzyme system, 90 min, 37° C., pH 7.4; read-out: 50% Inhibitory Concentration (IC50), cholesterol biosynthesis
Procedure: Inhibitory Effect on Biosynthesis of Cholesterol in Cell-free Biosystem
(1) Preparation of Enzyme Reaction System
(§1) The preparation of the enzymatic system for the biosynthesis of cholesterol in rats was carried out according to the method described in Biochimica et Biophysica Acta, Vol.486, pp 70-81, 1977.
(§2) More particularly, SD-strain female rats weighing from […] were fed for 7 to 10 days with a diet containing 2% cholestyramine to enhance their biosynthetic activity of cholesterol. After killed the rats by means of depletion of blood in midnight, the livers thereof were removed and homogenized with a double volume of 0.1 M potassium phosphate buffer solution (pH 7.4) containing 15 mM nicotine amide and 2 mM magnesium chloride by using a loose fitting-type teflon homogenizer. The supernatant obtained by centrifuging the homogenate at 12,000×g for 30 min. was further centrifuged at 105,000×g for 90 min., thereby separating it to the microsome fraction and the supernatant fraction. The supernatant obtained were kept as the fraction resulting in the precipitation in 40-80% ammonium sulfate (hereinafter referred to as "soluble fraction"). Each of the soluble fraction and the microsome fraction were independently adjusted with 0.1 M potassium phosphate buffer solution (pH 7.4) to the volumes of 1 ml/g of liver and 1 ml/3 g of liver, respectively, and were kept and used in the subsequent tests as an enzyme solution for the mixing ratio of 16:1.
(2) Method for Measuring Cholesterol Biosynthesis Activity
(§3) Cholesterol biosynthesis activity was measured according to the method described in Biochimica Biophysica Acta, Vol.486, pp 70-81, 1977. 2 μl dimethylsulfoxide solution of the test compound were added to a solution composed of 50 μl of the enzyme solution prepared in (1) described above, 0.1 M potassium phosphate buffer solution (pH 7.4), 1 mM ATP, 5 mM glucose-1-phosphate, 6 mM glutathione, 6 mM magnesium chloride, 0.04 mM coenzyme A, 0.25 mM NAD, 0.25 mM NADP and 1 mM 2-^14 C-sodium acetate (111 MBq./mmol), and the resultant solution was adjusted to the whole volume of 0.2 ml and then allowed to a reaction for 90 min. at 37° C. while shaking. The reaction was then stopped by adding 1 ml of 15% ethanol solution of potassium hydroxide, and the solution was then heated for 1 hour at 75° C. After extracted unsaponificated products with hexane from the solution, the solution was then condensed and dried to the hard state and subsequently dissolved in small volume of a mixture of chloroform and methanol (mixing ratio; 1:2). The resultant chloroform-methanol solution was spotted on a pre-coated silica gel TLC plate, then developed with a developer composed of benzene and ethyl acetate (mixing ratio; 9:1). The cholesterol spot was then taken out from the plate, and the radient activity of the spot was measured by using a liquid scintillation counter. Based on the radio-activity measured, mthe 50% inhibitory concentration (IC50) of the compounds of the present invention were determined.

[3] = biological target: T1, squalene-2,3-oxide cyclase (Rattus norvegicus, UniProt P48450); test: Sterol amount synthesized in cell-free cholesterol biosynthesis system (squalene-2,3-epoxide accumulation); assay type: biochemical, rat (SD-strain); conditions: average of 6 results
T1 sequence (P48450 2-733): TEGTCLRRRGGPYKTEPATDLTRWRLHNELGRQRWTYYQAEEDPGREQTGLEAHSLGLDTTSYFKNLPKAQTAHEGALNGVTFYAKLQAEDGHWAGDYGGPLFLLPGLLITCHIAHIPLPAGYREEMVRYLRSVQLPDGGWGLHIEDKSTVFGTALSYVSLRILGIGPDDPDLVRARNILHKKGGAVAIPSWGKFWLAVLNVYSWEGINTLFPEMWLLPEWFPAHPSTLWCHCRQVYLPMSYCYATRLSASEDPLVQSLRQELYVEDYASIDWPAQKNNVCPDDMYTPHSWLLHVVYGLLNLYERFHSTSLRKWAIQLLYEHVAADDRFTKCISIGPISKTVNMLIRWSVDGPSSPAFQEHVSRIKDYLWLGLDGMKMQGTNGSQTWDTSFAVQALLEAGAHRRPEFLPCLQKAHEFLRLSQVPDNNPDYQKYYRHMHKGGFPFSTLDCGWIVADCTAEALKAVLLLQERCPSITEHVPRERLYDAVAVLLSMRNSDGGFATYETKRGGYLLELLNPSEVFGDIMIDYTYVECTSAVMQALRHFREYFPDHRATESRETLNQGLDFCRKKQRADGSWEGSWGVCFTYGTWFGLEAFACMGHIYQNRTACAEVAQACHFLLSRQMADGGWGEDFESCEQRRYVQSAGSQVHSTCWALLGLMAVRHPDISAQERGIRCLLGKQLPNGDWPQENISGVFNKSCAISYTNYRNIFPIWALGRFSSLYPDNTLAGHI
Procedure: as §1, §2, §3
On the other hand, after determining the position of ^14 C-squalene-2,3-epoxide on the TLC, which was produced due to the action of AMO 1618 (Calbiochem, USA), a squalene-2,3-oxidecyclase inhibitor, the spot containing squalene-2,3-epoxide […] was taken out and the radio-activity thereof was then determined by using a liquid scintillation counter.

[4] = read-out: % Change of Serum Lipid to Control Group: HDL Cholesterole
[5] = read-out: % Change of Serum Lipid to Control Group: Total Cholesterole
[6] = read-out: % Change of Serum Lipid to Control Group: Total glyceride
[7] = 1 μM, control 2125 (Test 1, 1-17), 953 (Test 2, 2-47)
[8] = 1 μM, control 15448 (Test 1, 1-17), 9453 (Test 2, 2-47)
[9] = 1 μM, control 85102 (Test 1, 1-17), 53622 (Test 2, 2-47)
[10] = 3 μM, control 2125 (Test 1, 1-17), 953 (Test 2, 2-47)
[11] = 3 μM, control 15448 (Test 1, 1-17), 9453 (Test 2, 2-47)
[12] = 3 μM, control 85102 (Test 1, 1-17), 53622 (Test 2, 2-47)
[13] = 10 μM, control 2125 (Test 1, 1-17), 953 (Test 2, 2-47)
[14] = 10 μM, control 15448 (Test 1, 1-17), 9453 (Test 2, 2-47)
[15] = 10 μM, control 85102 (Test 1, 1-17), 53622 (Test 2, 2-47)
[16] = 30 μM, control 2125 (Test 1, 1-17), 953 (Test 2, 2-47)
[17] = 30 μM, control 15448 (Test 1, 1-17), 9453 (Test 2, 2-47)
[18] = 30 μM, control 85102 (Test 1, 1-17), 53622 (Test 2, 2-47)

SMILES | change in vivo at 100 mg/kg [1, 4] | change in vivo at 100 mg/kg [1, 5] | change in vivo at 100 mg/kg [1, 6] | IC50 [2] | further results
CC[C@H](C)C(=O)O[C@H]1C[C@H](O)C=C2C=C[C@H](C)[C@H](CC[C@@H](O)C[C@@H](O)CC(=O)O)[C@H]21 [Pravastatin, reference compound] | -8% | -16% | -28% | – | –
c1ccc(CCCOc2ccc(-n3ccnc3)cc2)cc1 [Compound 1-47] | 46% | -16% | -23% | 7000 nM | –
c1ccc(OCCCCNc2ccc(-n3ccnc3)cc2)cc1 [Compound 1-35] | – | – | – | 2200 nM | –
c1ccc(OCCCNc2ccc(-n3ccnc3)cc2)cc1 [Compound 1-33] | – | – | – | 6200 nM | –
CC(CCOc1ccc(-n2ccnc2)cc1)c1ccccc1 (stereo not drawn) [Compound 1-48] | – | – | – | 1400 nM | –
Cc1ccc(OCCCOc2ccc(Cn3ccnc3)cc2)cc1 [Compound 2-95, 1-{4-[3-(4-tolyloxy)propyloxy]benzyl} imidazole] | – | – | – | 2400 nM | –
CCCCCCCCCCOc1ccc(-n2ccnc2)cc1 [Compound 1-119] | – | – | – | 9000 nM | –
CN(CCCc1ccccc1)c1ccc(-n2ccnc2)cc1 [Compound 1-27] | 65% | -14% | -22% | 1800 nM | –
c1ccc(CCCCOc2ccc(Cn3ccnc3)cc2)cc1 [Compound 2-49, 1-[4-(4-phenylbutyloxy)benzyl]imidazole] | 20% | -16% | -10% | 1200 nM | –
c1ccc(CCCNc2ccc(-n3ccnc3)cc2)cc1 [Compound 1-17] | 78% | -29% | -46% | 1500 nM | Sterol Amount Synthesized: Squalene-2,3-epoxide [3, 7]: 3238 dpm/90min/Assay; Sterol Amount Synthesized: Cholesterol [3, 8]: 15297 dpm/90min/Assay; Sterol Amount Synthesized: Total Amount Synthesized [3, 9]: 72069 dpm/90min/Assay; Sterol Amount Synthesized: Squalene-2,3-epoxide [3, 10]: 2102 dpm/90min/Assay; Sterol Amount Synthesized: Cholesterol [3, 11]: 8938 dpm/90min/Assay; Sterol Amount Synthesized: Total Amount Synthesized [3, 12]: 82446 dpm/90min/Assay; Sterol Amount Synthesized: Squalene-2,3-epoxide [3, 13]: 7382 dpm/90min/Assay; Sterol Amount Synthesized: Cholesterol [3, 14]: 6364 dpm/90min/Assay; Sterol Amount Synthesized: Total Amount Synthesized [3, 15]: 79733 dpm/90min/Assay; Sterol Amount Synthesized: Squalene-2,3-epoxide [3, 16]: 10914 dpm/90min/Assay; Sterol Amount Synthesized: Cholesterol [3, 17]: 3558 dpm/90min/Assay; Sterol Amount Synthesized: Total Amount Synthesized [3, 18]: 95990 dpm/90min/Assay; Sterol Amount Synthesized: Squalene-2,3-epoxide ([3]; 100 μM, control 2125 (Test 1)): 12736 dpm/90min/Assay; Sterol Amount Synthesized: Cholesterol ([3]; 100 μM, control 15448 (Test 1)): 1830 dpm/90min/Assay; Sterol Amount Synthesized: Total Amount Synthesized ([3]; 100 μM, control 85102 (Test 1)): 77489 dpm/90min/Assay
c1ccc(OCCCOc2ccc(-n3ccnc3)cc2)cc1 [Compound 1-60] | 52% | -22% | -37% | 4800 nM | –
c1ccc(CCCCCCOc2ccc(-n3ccnc3)cc2)cc1 [Compound 1-53] | – | – | – | 1700 nM | –
c1ccc(OCCCCOc2ccc(-n3ccnc3)cc2)cc1 [Compound 1-61] | – | – | – | 4000 nM | –
c1ccc(OCCCOc2ccc(Cn3ccnc3)cc2)cc1 [Compound 2-60] | – | – | – | 10000 nM | –
c1ccc(CCCCOc2ccc(-n3ccnc3)cc2)cc1 [Compound 1-49, 1-[4-(4-phenylbutoxy)phenyl]imidazole] | – | – | – | 680 nM | –
Cc1cc(OC(=O)N2CCCCC2)c(C(C)C)cc1[N+](C)(C)C [AMO 1618, reference compound] | – | – | – | 140000 nM | –
O=S(=O)(CCCOc1ccc(Cn2ccnc2)cc1)c1ccccc1 [Compound 2-68, 1-[4-(3-benzenesulfonylpropyloxy)benzyl]imidazole] | – | – | – | < 1000 nM | –
c1ccc(CCCCCCNc2ccc(-n3ccnc3)cc2)cc1 [Compound 1-24] | – | – | – | 2600 nM | –
c1ccc(CCCOc2ccc(Cn3ccnc3)cc2)cc1 [Compound 2-47, 1-[4-(3-phenylpropyloxy)benzyl]imidazole] | – | – | – | 1400 nM | Sterol Amount Synthesized: Squalene-2,3-epoxide [3, 7]: 221 dpm/90min/Assay; Sterol Amount Synthesized: Cholesterol [3, 8]: 5289 dpm/90min/Assay; Sterol Amount Synthesized: Total Amount Synthesized [3, 9]: 53803 dpm/90min/Assay; Sterol Amount Synthesized: Squalene-2,3-epoxide [3, 10]: 1280 dpm/90min/Assay; Sterol Amount Synthesized: Cholesterol [3, 11]: 6333 dpm/90min/Assay; Sterol Amount Synthesized: Total Amount Synthesized [3, 12]: 56335 dpm/90min/Assay; Sterol Amount Synthesized: Squalene-2,3-epoxide [3, 13]: 1836 dpm/90min/Assay; Sterol Amount Synthesized: Cholesterol [3, 14]: 4210 dpm/90min/Assay; Sterol Amount Synthesized: Total Amount Synthesized [3, 15]: 72823 dpm/90min/Assay; Sterol Amount Synthesized: Squalene-2,3-epoxide [3, 16]: 7126 dpm/90min/Assay; Sterol Amount Synthesized: Cholesterol [3, 17]: 3787 dpm/90min/Assay; Sterol Amount Synthesized: Total Amount Synthesized [3, 18]: 63661 dpm/90min/Assay
CCCCCCCCCCNc1ccc(-n2ccnc2)cc1 [Compound 1-115] | 22% | -17% | -25% | 10000 nM | –
c1ccc(OCCOc2ccc(Cn3ccnc3)cc2)cc1 [Compound 2-59, 1-[4-(2-phenoxyethyloxy)benzyl]imidazole] | – | – | – | 21000 nM | –
c1ccc(CCCCNc2ccc(-n3ccnc3)cc2)cc1 [Compound 1-20] | – | – | – | 700 nM | –
